Laboratory results as given in PMC9151520 (Archives of Toxicology, 2022).
“And” between values parts separate entries of the source, which are not always exact repeats. Equal values may be shown once. Read-outs that look alike come from different tables or passages of the source.

Tests used:
[1] = tested on: p53 signaling (p53RE-bla HCT-116 cells); test: cells; format: cell-based; settings: for EC50 / Emax: Homo sapiens
[2] = tested on: p53 signaling (p53RE-bla HCT-116 cells); test: cells; format: cell-based
[3] = tested on: p53 signaling (p53RE-bla HCT-116 cells); test: cells; format: cell-based; settings: Homo sapiens; for EC50: HCT-116; for Emax: HCT-116, read-out: efficacy
[4] = tested on: p53 signaling (p53RE-bla HCT-116 cells)
[5] = tested on: p53 signaling (p53RE-bla HCT-116 cells); remark: listed apart in the source
[6] = tested on: p53RE-bla HCT-116 cells
[7] = tested on: p53 signaling (p53RE-bla HCT-116 cells); test: cells; settings: Homo sapiens
[8] = tested on: p53 signaling (p53RE-bla HCT-116 cells); test: cells; settings: Homo sapiens; for EC50: HCT-116, read-out: p53 activation EC50, HLM
[9] = tested on: p53RE-bla HCT-116 cells; test: cells; settings: Homo sapiens
[10] = read-out: p53 activation EC50, RLM
[11] = HCT-116, read-out: p53 activation EC50, RLM
[12] = HCT-116, read-out: EC50, p53 activation, primary screening
[13] = HCT-116, read-out: Efficacy, p53 activation, primary screening
[14] = read-out: EC50, viability, primary screening
[15] = HCT-116, read-out: EC50, viability, primary screening
[16] = HCT-116, read-out: p53 activation EC50, cherry pick confirmation
[17] = HCT-116, read-out: p53 activation EC50, primary screening
[18] = HCT-116, read-out: p53 activation efficacy, cherry pick confirmation
[19] = HCT-116, read-out: p53 activation efficacy, primary screening
[20] = HCT-116, read-out: Viability EC50, primary screening
[21] = HCT-116, read-out: p53 activation efficacy

COP(=S)(OC)Oc1ccc(SC)c(C)c1 [Fenthion]
p53 activation EC50, No MS [1]: inactive | p53 activation Efficacy, No MS [1]: inactive | EC50 ([2]; Homo sapiens, HCT-116, 0.5 h): 1.28 µM | EC50 [3]: 8.86 µM | EC50 [4, 10]: 7.2 µM | p53 activation EC50, HLM [5]: inactive | Viability EC50, HLM [6]: inactive | Viability EC50, No MS [6]: inactive | Viability EC50, RLM [6]: inactive | Viability Efficacy, HLM [6]: inactive | Viability Efficacy, No MS [6]: inactive | Viability Efficacy, RLM [6]: inactive | EC50 ([7]; HCT-116): 7.81 µM | Emax ([7]; HCT-116, read-out: efficacy): 39% | EC50 [7, 11]: 8.91 µM | EC50 [8]: 1.1 µM

CN(C)c1ccc(C(=C2C=CC(=[N+](C)C)C=C2)c2ccc(N(C)C)cc2)cc1 [Gentian Violet]
EC50 ([1]; HCT-116, read-out: EC50, p53 activation, cherry pick confirmation): 23.6 µM | EC50 [1, 12]: 51.1 µM | Emax ([1]; HCT-116, read-out: Efficacy, p53 activation, cherry pick confirmation): 48.7% | Emax [1, 13]: 65.5% | EC50, p53 activation, cherry pick confirmation [4]: inactive | EC50, p53 activation, primary screening [4]: inactive | Efficacy, p53 activation, cherry pick confirmation [4]: inactive | Efficacy, p53 activation, primary screening [4]: inactive | EC50, p53 activation, cherry pick confirmation [5]: inactive | EC50, p53 activation, primary screening [5]: inactive | Efficacy, p53 activation, cherry pick confirmation [5]: inactive | Efficacy, p53 activation, primary screening [5]: inactive | EC50 ([6]; read-out: EC50, viability, cherry pick confirmation): 27.6 µM and 21.3 µM | EC50 [6, 14]: 16 µM and 24.9 µM | EC50 ([9]; HCT-116, read-out: EC50, viability, cherry pick confirmation): 22 µM | EC50 [9, 15]: 29.2 µM

Oc1ccc(Cl)cc1Sc1cc(Cl)ccc1O [Fenticlor]
EC50 [1, 16]: 18.1 µM | EC50 [1, 17]: 34.2 µM | Emax [1, 18]: 54.9% | Emax [1, 19]: 52.2% | p53 activation EC50, cherry pick confirmation [4]: inactive | p53 activation EC50, primary screening [4]: inactive | p53 activation efficacy, cherry pick confirmation [4]: inactive | p53 activation efficacy, primary screening [4]: inactive | p53 activation EC50, cherry pick confirmation [5]: inactive | p53 activation EC50, primary screening [5]: inactive | p53 activation efficacy, cherry pick confirmation [5]: inactive | p53 activation efficacy, primary screening [5]: inactive | Viability EC50, primary screening [6]: inactive | EC50 ([6]; read-out: Viability EC50, primary screening): 18.7 µM | EC50 [9, 20]: 27.7 µM

CC(C)C[C@H](NC(=O)[C@H](Cc1ccccc1)NC(=O)c1cnccn1)B(O)O [Bortezomib]
EC50 [1, 16]: 0.101 µM | EC50 [1, 17]: 0.0122 µM | Emax [1, 18]: 134% | Emax [1, 19]: 104% | p53 activation EC50, cherry pick confirmation [4]: inactive | p53 activation EC50, primary screening [4]: inactive | p53 activation efficacy, cherry pick confirmation [4]: inactive | p53 activation efficacy, primary screening [4]: inactive | p53 activation EC50, cherry pick confirmation [5]: inactive | p53 activation EC50, primary screening [5]: inactive | p53 activation efficacy, cherry pick confirmation [5]: inactive | p53 activation efficacy, primary screening [5]: inactive | Viability EC50, cherry pick confirmation [6]: inactive | Viability EC50, primary screening [6]: inactive | EC50 ([9]; HCT-116, read-out: Viability EC50, cherry pick confirmation): 0.397 µM | EC50 [9, 20]: 0.428 µM

CC(C)(c1cc(Br)c(O)c(Br)c1)c1cc(Br)c(O)c(Br)c1 [3,3',5,5'-Tetrabromobisphenol A]
EC50, p53 activation, cherry pick confirmation [1]: inactive | Efficacy, p53 activation, cherry pick confirmation [1]: inactive | EC50 [1, 12]: 30.1 µM | Emax [1, 13]: 91.5% | EC50, p53 activation, cherry pick confirmation [4]: inactive | EC50, p53 activation, primary screening [4]: inactive | Efficacy, p53 activation, cherry pick confirmation [4]: inactive | Efficacy, p53 activation, primary screening [4]: inactive | EC50, p53 activation, cherry pick confirmation [5]: inactive | EC50, p53 activation, primary screening [5]: inactive | Efficacy, p53 activation, cherry pick confirmation [5]: inactive | Efficacy, p53 activation, primary screening [5]: inactive | EC50 [6, 14]: 34.9 µM and 45.8 µM | EC50 [9, 15]: 34.3 µM

COP(N)(=O)SC (stereo not shown) [Methamidophos]
p53 activation EC50, No MS [1]: inactive | p53 activation Efficacy, No MS [1]: inactive | EC50 ([2]; Homo sapiens, HCT-116, 0.5 h): 6.02 µM | EC50 [3]: 9.77 µM | EC50 [4, 10]: 13.8 µM | p53 activation EC50, HLM [5]: inactive | Viability EC50, HLM [6]: inactive | Viability EC50, No MS [6]: inactive | Viability EC50, RLM [6]: inactive | Viability Efficacy, HLM [6]: inactive | Viability Efficacy, No MS [6]: inactive | Viability Efficacy, RLM [6]: inactive | EC50 ([7]; HCT-116): 11.4 µM | Emax ([7]; HCT-116, read-out: efficacy): 48.9% | EC50 [7, 11]: 11.2 µM | EC50 [8]: 2.04 µM

CNC(=O)O/N=C(\SC)C(=O)N(C)C [Oxamyl]
p53 activation EC50, No MS [1]: inactive | p53 activation Efficacy, No MS [1]: inactive | EC50 ([2]; Homo sapiens, HCT-116, 0.5 h): 14.4 µM | EC50 [3]: 22.4 µM | EC50 [4, 10]: 10.9 µM | p53 activation EC50, HLM [5]: inactive | Viability EC50, HLM [6]: inactive | Viability EC50, No MS [6]: inactive | Viability EC50, RLM [6]: inactive | Viability Efficacy, HLM [6]: inactive | Viability Efficacy, No MS [6]: inactive | Viability Efficacy, RLM [6]: inactive | EC50 ([7]; HCT-116): 14.2 µM | Emax ([7]; HCT-116, read-out: efficacy): 58.1% | EC50 [7, 11]: 14.1 µM | EC50 [8]: 2.96 µM

CCOP(=S)(OCC)O/N=C(\C#N)c1ccccc1 [Phoxim]
p53 activation EC50, No MS [1]: inactive | p53 activation Efficacy, No MS [1]: inactive | EC50 ([2]; Homo sapiens, HCT-116, 0.5 h): 5.35 µM | Emax ([2]; Homo sapiens, HCT-116, read-out: efficacy): 43.5% | EC50 [3]: 5.3 µM | Emax [3]: 42.2% | EC50 [4, 10]: 5.83 µM | p53 activation EC50, HLM [5]: inactive | Viability EC50, HLM [6]: inactive | Viability EC50, No MS [6]: inactive | Viability EC50, RLM [6]: inactive | Viability Efficacy, HLM [6]: inactive | Viability Efficacy, No MS [6]: inactive | Viability Efficacy, RLM [6]: inactive | EC50 ([7]; HCT-116): 4.42 µM | Emax ([7]; HCT-116, read-out: efficacy): 34.4% | EC50 [7, 11]: 3.04 µM | EC50 [8]: 2.17 µM

CCCCSP(=O)(SCCCC)SCCCC [Tribufos]
p53 activation EC50, cherry pick confirmation [1]: inactive | p53 activation EC50, primary screening [1]: inactive | p53 activation efficacy, cherry pick confirmation [1]: inactive | p53 activation efficacy, primary screening [1]: inactive | EC50 ([2]; Homo sapiens, HCT-116, 0.5 h): 0.74 µM | EC50 [3]: 1.32 µM | p53 activation EC50, cherry pick confirmation [5]: inactive | p53 activation efficacy, cherry pick confirmation [5]: inactive | Viability EC50, cherry pick confirmation [6]: inactive | Viability EC50, primary screening [6]: inactive | Viability efficacy, cherry pick confirmation [6]: inactive | Viability efficacy, primary screening [6]: inactive | EC50 ([7]; HCT-116): 2.16 µM | Emax ([7]; HCT-116, read-out: efficacy): 44.2% | EC50 [7, 16]: 1.86 µM | Emax [7, 18]: 41.6% | Emax [7, 19]: 36% | Emax [8, 19]: 34.6%

CCOP(=S)(OCC)OC(Cl)C(Cl)(Cl)Cl (stereo not shown) [Chlorethoxyfos]
p53 activation EC50 [1]: inactive | p53 activation efficacy [1]: inactive | EC50 ([2]; Homo sapiens, HCT-116, 0.5 h): 0.75 µM | EC50 [3]: 7.79 µM | p53 activation efficacy [4]: 53.0303 | EC50 ([4]; read-out: p53 activation EC50): 11.7 µM | p53 activation EC50 [5]: inactive | Viability EC50 [6]: inactive | Viability efficacy [6]: inactive | EC50 ([7]; HCT-116): 11.4 µM | Emax ([7]; HCT-116, read-out: efficacy): 35.9% | Emax [7, 21]: 43.1% | Emax [8, 21]: 44%

CNP(=O)(OC)Oc1ccc(C(C)(C)C)cc1Cl (stereo not shown) [Crufomate]
p53 activation EC50, No MS [1]: inactive | p53 activation Efficacy, No MS [1]: inactive | EC50 ([2]; Homo sapiens, HCT-116, 0.5 h): 0.33 µM | EC50 [3]: 3.29 µM | p53 activation EC50, HLM [5]: inactive | Viability EC50, HLM [6]: inactive | Viability EC50, No MS [6]: inactive | Viability EC50, RLM [6]: inactive | Viability Efficacy, HLM [6]: inactive | Viability Efficacy, No MS [6]: inactive | Viability Efficacy, RLM [6]: inactive | EC50 ([7]; HCT-116): 4.36 µM | Emax ([7]; HCT-116, read-out: efficacy): 66.6% | EC50 [8]: 4.17 µM

CCOP(=S)(OCC)OP(=S)(OCC)OCC [Sulfotepp]
p53 activation EC50, No MS [1]: inactive | p53 activation Efficacy, No MS [1]: inactive | EC50 [2]: Inactive | EC50 [3]: 16.6 µM | Emax [3]: 42.1% | p53 activation EC50, HLM [5]: inactive | Viability EC50, HLM [6]: inactive | Viability EC50, No MS [6]: inactive | Viability EC50, RLM [6]: inactive | Viability Efficacy, HLM [6]: inactive | Viability Efficacy, No MS [6]: inactive | Viability Efficacy, RLM [6]: inactive | EC50 ([7]; HCT-116): 14.3 µM | Emax ([7]; HCT-116, read-out: efficacy): 37.4% | EC50 [8]: 21.6 µM
